Test results from US20160355457A1, “Solid Forms Comprising(-)-O-Desmethylvenlafaxine And Uses Thereof” (Sunovion Pharmaceuticals Inc., priority 2007, published 2016).

Experiments:
[1] = Stability properties of the solid form; assay type: physicochemical
[2] = Moisture sorption/desorption (dynamic vapor sorption); assay type: physicochemical
Description: Moisture sorption/desorption data were collected on a VTI SGA-100 Vapor Sorption Analyzer. Sorption and desorption data were collected over a range of 5% to 95% relative humidity (RH) at 10% RH intervals under a nitrogen purge. For some samples, a step at 90% RH was added to the sorption cycle. Samples were not dried prior to analysis. Equilibrium criteria used for analysis were less than 0.0100% weight change in 5 minutes, with a maximum equilibration time of 3 hours if the weight criterion was not met. Data were not corrected for the initial moisture content of the samples. NaCl and PVP were used as calibration standards.

[3] = decreased from 95% to 5% relative humidity
[4] = increased from 5% to 95% relative humidity

Structure (SMILES) | loss in mass on decreasing relative humidity (dynamic vapor sorption) [2, 3] | gain in mass on increasing relative humidity (dynamic vapor sorption) [2, 4] | other results
CN(C)C[C@@H](c1ccc(O)cc1)C1(O)CCCCC1.Cl [Form A, (−)-1-[2-(dimethylamino)-1-(4-hydroxyphenyl)ethyl]cyclohexanol hydrochloride salt] | – | – | stability properties [1]: excellent stability properties; loss in mass on decreasing relative humidity (dynamic vapor sorption) ([2]; decreased from 90% to 5% relative humidity): about 1%; gain in mass on increasing relative humidity (dynamic vapor sorption) ([2]; increased from 5% to 90% relative humidity, hydrochloride salt): < 1%
CN(C)C[C@@H](c1ccc(O)cc1)C1(O)CCCCC1.Cl [Form B, monohydrochloride salt of (−)-O-desmethylvenlafaxine] | about 26% | about 25% | –
CN(C)C[C@@H](c1ccc(O)cc1)C1(O)CCCCC1.Cl [Form C, monohydrochloride salt of (−)-O-desmethylvenlafaxine] | about 27% | about 27% | –
CN(C)C[C@@H](c1ccc(O)cc1)C1(O)CCCCC1.Cl [Form E, monohydrochloride salt of (−)-O-desmethylvenlafaxine] | about 5.8% | about 4.7% | –
CN(C)C[C@@H](c1ccc(O)cc1)C1(O)CCCCC1.Cl [Form F, monohydrochloride salt of (−)-O-desmethylvenlafaxine] | about 33% | about 32% | –
CN(C)C[C@@H](c1ccc(O)cc1)C1(O)CCCCC1.Cl [Form G, monohydrochloride salt of (−)-O-desmethylvenlafaxine] | about 22% | about 23% | gain in mass on increasing relative humidity (dynamic vapor sorption) ([2]; increased from 5% to 90% relative humidity): about 3%
CN(C)C[C@@H](c1ccc(O)cc1)C1(O)CCCCC1.Cl [amorphous form, (−)-1-[2-(dimethylamino)-1-(4-hydroxyphenyl)ethyl]cyclohexanol monohydrochloride salt] | – | – | loss in mass on decreasing relative humidity (dynamic vapor sorption) ([2]; decreased from 95% to 5% relative humidity, monohydrochloride salt): about 32%; gain in mass on increasing relative humidity (dynamic vapor sorption) ([2]; increased from 5% to 95% relative humidity, monohydrochloride salt): about 36%
